Data taken from patent publication US11026426B2, “Oxadiazole and phenol derivatives as antibacterial and/or herbicidal agents” (NORTHERN ILLINOIS RESEARCH FOUNDATION, priority 2017, dated 2021).
Where two headings read alike, the source gives them in different places.

What was measured:
[1] = target: T1, Mycobacterium tuberculosis IspD (MtIspD) (Mycobacterium tuberculosis, UniProt P9WKG9); assay: Thermal shift assay against MtIspD; assay type: binding
T1 sequence (P9WKG9 1-231): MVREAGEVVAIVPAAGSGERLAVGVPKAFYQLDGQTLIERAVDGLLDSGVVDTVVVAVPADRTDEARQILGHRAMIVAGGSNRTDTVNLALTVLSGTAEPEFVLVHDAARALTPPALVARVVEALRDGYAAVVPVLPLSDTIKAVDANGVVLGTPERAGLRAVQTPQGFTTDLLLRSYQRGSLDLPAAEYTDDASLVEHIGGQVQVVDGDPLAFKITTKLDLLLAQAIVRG

E. coli IspD = E. coli IspD (Escherichia coli, UniProt Q46893); assay: IspD assay (Washington University, EnzCheck phosphate) EcIspD; assay type: biochemical; conditions: up to 100 μM; bar graph at 12.5 and 100 μM
Sequence of E. coli IspD (Q46893 whole entry): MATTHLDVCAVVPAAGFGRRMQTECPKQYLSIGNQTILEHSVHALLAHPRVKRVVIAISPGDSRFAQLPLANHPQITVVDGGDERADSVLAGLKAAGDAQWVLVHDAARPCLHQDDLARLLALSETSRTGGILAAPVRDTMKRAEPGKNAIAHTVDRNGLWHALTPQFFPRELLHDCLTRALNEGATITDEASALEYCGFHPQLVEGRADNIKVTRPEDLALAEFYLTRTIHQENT
Description: Compounds were tested against IspD from Escherichia coli and Plasmodium falciparum. The assay measured activity through monitoring phosphate levels released by IspD enzyme over time using conditions published previously. The assay utilized the EnzCheck phosphate assay kit to quantify phosphate released by IspD. Reactions were done in a 96-well plate with each well containing a final volume of 50 μL. Concentrations of reagents were as follows: 100 mM NaCl, 25 mM Tris at pH 7.0, 7.5 mM MgCl2, 1 mM dithiothreitol, 1 U/mL purine nucleoside phosphorylase, and 0.1 U/mL yeast inorganic pyrophosphatase, 50 μM CTP, 500 μM MEP, 0.1% DMSO, and 0.2 mM 2-Amino-6-mercapto-7-methyl puring riboside. Reactions with EclspD used 2 nM EclspD and reactions with PfIspD used 50 nM PfIspD. Reactions involved pre-warming the enzyme and buffers to 37° C. with different inhibitor concentrations followed by the addition of the purified MEP substrate. Absorbance was measured at 360 nm over time and values were used to create regression analysis curves from three trials and values were converted to (μM MEP)(μM enzyme)^−1s^−1 using a standard phosphate curve. These values were then used to identify percent activity compared to enzyme activity without the inhibitor. Results are indicated.

AtIspD = AtIspD (Arabidopsis thaliana, UniProt P69834); assay: University of Hamburg photometric enzymatic inhibition assay AtIspD; assay type: biochemical; conditions: read-out: AtIspD IC50
Sequence of AtIspD (P69834 62-302): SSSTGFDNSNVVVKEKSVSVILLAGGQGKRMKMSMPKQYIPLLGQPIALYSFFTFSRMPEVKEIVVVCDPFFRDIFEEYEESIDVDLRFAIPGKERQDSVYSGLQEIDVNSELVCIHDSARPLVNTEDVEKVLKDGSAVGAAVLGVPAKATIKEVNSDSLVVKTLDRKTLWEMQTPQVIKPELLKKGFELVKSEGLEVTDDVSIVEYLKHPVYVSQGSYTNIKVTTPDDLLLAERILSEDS
In short: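 Coupled photometric assay: 2.4 mU AtIspD with 1 mM (2R,3S)-2,3-dihydroxy-4-oxopentyl phosphate, 2.1 mM CTP, excess IspE (0.4 U), ATP, pyruvate kinase/lactate dehydrogenase and 460 μM NADH. Run in 100 mM Tris-HCl pH 8.0, 10 mM MgCl2, 1 mM DTT, 1.1% DMSO at 27 °C, monitored photometrically.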

Escherichia coli = assay: Antibacterial preliminary screening EC; assay type: cell-based; conditions: score 0-3; also: key: 0 represents no inhibition; 3 is comparable to commercial antibiotic control
AtIspF = AtIspF (Arabidopsis thaliana, UniProt Q9CAK8); assay: University of Hamburg photometric enzymatic inhibition assay AtIspF; assay type: biochemical; conditions: read-out: AtIspF IC50
Sequence of AtIspF (Q9CAK8 53-231): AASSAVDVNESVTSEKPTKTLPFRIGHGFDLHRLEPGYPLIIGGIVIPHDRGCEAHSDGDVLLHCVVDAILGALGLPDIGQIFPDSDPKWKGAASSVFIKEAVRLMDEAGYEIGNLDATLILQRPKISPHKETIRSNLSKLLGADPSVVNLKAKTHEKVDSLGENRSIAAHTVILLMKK
In short: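 Coupled photometric assay (CMP kinase/pyruvate kinase/lactate dehydrogenase, NADH consumption) with 2.4 mU AtIspF and 1 mM 4-diphosphocytidyl-2C-methylerythritol 2-phosphate, 2 mM ATP, in 100 mM Tris-HCl pH 8.0, 10 mM MgCl2, 1.1% DMSO. Monitored at 27 °C.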

[2] = tested on: Burkholderia thailandensis; assay type: cell-based; conditions: preliminary screening, score 0-3
Pseudomonas aeruginosa = assay: Antibacterial preliminary screening PA; assay type: cell-based; conditions: score 0-3; also: key: 0 represents no inhibition; 3 is comparable to commercial antibiotic control
lettuce seeds = assay: Lettuce leaf assay; assay type: in vivo; design: key: 0 (no effect); 5(complete inhibition or bleaching); conditions: ranking 0-5
In short: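 Qualitative assay: compounds in volatile organic solvent applied to filter paper in a petri dish, solvent evaporated, lettuce seeds and 5 mL water added to give test concentrations. Germination, root development and leaf bleaching scored days 3 and 4, ranked 0 (no effect) to 5 (complete inhibition or bleaching).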

Mycobacterium smegmatis = assay: Antibacterial preliminary screening MS; assay type: cell-based; conditions: score 0-3; also: key: 0 represents no inhibition; 3 is comparable to commercial antibiotic control
LeIspE = LeIspE (Solanum lycopersicum, UniProt P93841); assay: University of Hamburg photometric enzymatic inhibition assay LeIspE; assay type: biochemical, Lycopersicon esculentum; conditions: read-out: LeIspE IC50
Sequence of LeIspE (P93841 89-401): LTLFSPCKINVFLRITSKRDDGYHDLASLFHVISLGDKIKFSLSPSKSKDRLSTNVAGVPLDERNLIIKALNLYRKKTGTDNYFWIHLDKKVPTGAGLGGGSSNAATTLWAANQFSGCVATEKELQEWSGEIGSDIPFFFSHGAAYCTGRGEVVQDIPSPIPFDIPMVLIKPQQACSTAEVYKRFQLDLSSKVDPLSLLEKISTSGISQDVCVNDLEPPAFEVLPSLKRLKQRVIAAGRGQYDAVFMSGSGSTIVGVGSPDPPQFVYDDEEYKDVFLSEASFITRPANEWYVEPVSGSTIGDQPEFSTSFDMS
In short: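 Photometric coupled assay with pyruvate kinase/lactate dehydrogenase following NADH (460 μM). Mix: 100 mM Tris-HCl pH 8.0, 10 mM MgCl2, 1 mM DTT, 2.5 mM phosphoenolpyruvate, 2 mM ATP, 1 mM 4-diphosphocytidyl-2-C-methylerythritol, 1.1% DMSO, 2.4 mU IspE; incubated at 27° C.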

Bacillus cereus = assay: Antibacterial preliminary screening BC; assay type: cell-based; conditions: score 0-3; also: key: 0 represents no inhibition; 3 is comparable to commercial antibiotic control
[3] = tested on: Corynebacterium pseudodiphtheriae; assay: Antibacterial preliminary screening CP; assay type: cell-based; conditions: score 0-3;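 also: 0 is no inhibition and 3 matches the commercial antibiotic control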
Klebsiella pneumonia = assay: Antibacterial preliminary screening KP; assay type: cell-based; conditions: score 0-3; also: key: 0 represents no inhibition; 3 is comparable to commercial antibiotic control
P. falciparum IspD = P. falciparum IspD (Plasmodium falciparum, UniProt Q8I273); assay: IspD assay (Washington University, EnzCheck phosphate) PfIspD; assay type: biochemical
Sequence of P. falciparum IspD (Q8I273 entry or part of it): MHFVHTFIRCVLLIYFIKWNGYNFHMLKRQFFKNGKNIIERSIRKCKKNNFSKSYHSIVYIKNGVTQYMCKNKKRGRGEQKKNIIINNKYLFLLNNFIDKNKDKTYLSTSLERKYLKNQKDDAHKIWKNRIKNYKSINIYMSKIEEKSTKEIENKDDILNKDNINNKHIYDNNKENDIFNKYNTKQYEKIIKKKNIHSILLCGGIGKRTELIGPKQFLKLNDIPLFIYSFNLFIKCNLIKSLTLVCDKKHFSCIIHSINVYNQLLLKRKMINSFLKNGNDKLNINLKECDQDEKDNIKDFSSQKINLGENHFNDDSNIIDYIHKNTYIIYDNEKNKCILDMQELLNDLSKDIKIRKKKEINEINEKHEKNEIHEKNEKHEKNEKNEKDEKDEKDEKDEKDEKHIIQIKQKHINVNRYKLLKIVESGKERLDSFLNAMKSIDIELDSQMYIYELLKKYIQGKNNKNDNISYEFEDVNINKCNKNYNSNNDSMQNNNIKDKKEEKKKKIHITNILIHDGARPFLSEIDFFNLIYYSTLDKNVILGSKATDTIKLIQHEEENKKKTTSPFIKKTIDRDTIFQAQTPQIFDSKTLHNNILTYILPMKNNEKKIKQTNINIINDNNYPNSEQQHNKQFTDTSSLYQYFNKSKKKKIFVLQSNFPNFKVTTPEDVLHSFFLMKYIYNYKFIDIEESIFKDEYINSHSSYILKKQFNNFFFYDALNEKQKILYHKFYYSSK

Micrococcus luteus = assay: Antibacterial preliminary screening ML; assay type: cell-based; conditions: score 0-3; also: key: 0 represents no inhibition; 3 is comparable to commercial antibiotic control
[4] = target: Lycopersicon esculentum IspE (LeIspE) (Solanum lycopersicum, UniProt P93841); assay: Thermal shift assay against LeIspE; assay type: binding
Sequence of Lycopersicon esculentum IspE (LeIspE) (P93841 89-401): as the sequence (P93841 89-401) above

Corynebacterium xerosis = assay: Antibacterial preliminary screening CX; assay type: cell-based; conditions: score 0-3; also: key: 0 represents no inhibition; 3 is comparable to commercial antibiotic control
[5] = target: Arabidopsis thaliana IspD (Arabidopsis thaliana, UniProt P69834); conditions: read-out: AtIspD IC50, cited from earlier work
Sequence of Arabidopsis thaliana IspD (P69834 62-302): as the sequence (P69834 62-302) above

[6] = tested on: IspE of Mycobacterium abscessus; assay: STD-NMR fragment screening MaIspE; assay type: binding; conditions: Fragments of Life library screening
[7] = target: IspD of Mycobacterium paratuburculosis (Mycolicibacterium paratuberculosis, UniProt Q743W5); assay: STD-NMR fragment screening MpIspD; assay type: binding; conditions: Fragments of Life library screening
Sequence of IspD of Mycobacterium paratuburculosis (Q743W5 whole entry, the tested form may be a part): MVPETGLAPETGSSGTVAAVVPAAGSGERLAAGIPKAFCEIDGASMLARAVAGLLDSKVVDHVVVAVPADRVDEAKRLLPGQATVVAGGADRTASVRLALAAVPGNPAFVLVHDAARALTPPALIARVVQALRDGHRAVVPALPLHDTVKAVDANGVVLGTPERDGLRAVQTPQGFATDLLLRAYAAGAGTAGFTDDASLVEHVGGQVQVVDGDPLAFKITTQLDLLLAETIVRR

[8] = target: Mycobacterium paratuberculosis IspD (MpIspD) (Mycolicibacterium paratuberculosis, UniProt Q743W5); assay: Thermal shift assay against MpIspD; assay type: binding
Sequence of Mycobacterium paratuberculosis IspD (MpIspD) (Q743W5 whole entry): as the sequence (Q743W5 whole entry, the tested form may be a part) above

| Compound | MtIspD melting temp [1] | inhibition of E. coli IspD activity (E. coli IspD) | IC50 (AtIspD) | EC score (Escherichia coli) | IC50 (AtIspF) | BT score [2] | PA score (Pseudomonas aeruginosa) | Bleaching (lettuce seeds; 0.2 mM) | Germination (lettuce seeds; 0.2 mM) | Root Dev. (lettuce seeds; 0.2 mM) | MS score (Mycobacterium smegmatis) | IC50 (LeIspE) | BC score (Bacillus cereus) | CP score [3] | KP score (Klebsiella pneumonia) | melting point | ML score (Micrococcus luteus) | LeIspE melting point change [4] | LeIspE melting temp [4] | CX score (Corynebacterium xerosis) | also measured |
| --- | --- | --- | --- | --- | --- | --- | --- | --- | --- | --- | --- | --- | --- | --- | --- | --- | --- | --- | --- | --- | --- |
| FC(F)(F)c1ccc(-c2nnc(-c3cc4ccccc4[nH]3)o2)cc1 [HGN-214, 2-(1H-indol-2-yl)-5-(4-(trifluoromethyl)phenyl)-1,3,4-oxadiazole] | 49.8 °C | some activity | > 1000 µM | 0 | > 1000 µM | 0 | 0 | 0 | 0 | 0 | 0 | 269 ± 23 µM | 0 | 0 | 0 | 258 to 260 °C | 0 | −1.00 °C | 48.50 °C | 0 | Bleaching (lettuce seeds; 0.5 mM): 0; Germination (lettuce seeds; 0.5 mM): 1; Root Dev. (lettuce seeds; 0.5 mM): 0; Bleaching (lettuce seeds; 1.0 mM): 0; Germination (lettuce seeds; 1.0 mM): 3; Root Dev. (lettuce seeds; 1.0 mM): 0; IC50 (P. falciparum IspD): ~100 µM |
| Oc1c(Br)cc(Br)cc1-c1[nH]c(Br)c(Br)c1Br [pentabromopseudilin] |  |  |  |  |  |  |  |  |  |  |  |  |  |  |  |  |  |  |  |  | IC50 ([5]; with 40 μM Cd2+ added): 1.4 ± 0.2 µM; IC50 ([5]; without a metal added): 13 ± 2 µM |
| Clc1ccc(-c2nnc(-c3cc4ccccc4[nH]3)o2)cc1 [HGN-213, 2-(4-chlorophenyl)-5-(1H-indol-2-yl)-1,3,4-oxadiazole] | 48.8 °C | some activity | 490 µM | 0 | > 1000 µM | 0 | 0 | 0 | 1 | 0 | 0 | 326 ± 29 µM | 0 | 0 | 0 | 265 to 270 °C | 0 | −2.00 °C | 47.50 °C | 0 | MtIspD melting point change [1]: 0.8 °C; IC50 (P. falciparum IspD): ~100 µM |
| c1ccc2[nH]c(-c3nnco3)cc2c1 [HGN-207, 2-(1H-indol-2-yl)-1,3,4-oxadiazole] | 49.5 °C |  | > 1000 µM | 0 | > 1000 µM | 0 | 0 |  |  |  | 0 | > 1000 µM | 0 | 0 | 0 | 205 to 207 °C | 0 | −1.25 °C | 48.25 °C | 0 | MtIspD melting point change [1]: 1.5 °C; Bleaching (lettuce seeds; 0.5 mM): 2; Germination (lettuce seeds; 0.5 mM): 2; Root Dev. (lettuce seeds; 0.5 mM): 0; Bleaching (lettuce seeds; 1.0 mM): 3; Germination (lettuce seeds; 1.0 mM): 2; Root Dev. (lettuce seeds; 1.0 mM): 0; STD-NMR binding to MaIspE [6]: bound; STD-NMR binding to MpIspD [7]: bound; MpIspD thermal shift (positive shift) [8]: 0.8 °C |
